{
  "source": "patent US10265378B2",
  "about": "“Combination therapy for head and neck cancer” (Cornell University, priority 2014, dated 2019)",
  "key": {"[1]": {"experiment": "Mouse serum triglyceride level measurements", "format": "in vivo", "conditions": "treatment for 15 weeks; compared to the UNT group", "method": "Mouse serum triglyceride level measurements. Blood samples from the mice were obtained from mouse tails. The analysis of serum triglyceride levels was carried out at the Laboratory of Comparative Pathology of the Memorial Sloan-Kettering Cancer Center. UNT (n=4); 4-NQO (n=3); 4N+B (n=4); 4N+C (n=3), and 4N+B+C (n=4)."}, "[2]": {"tested_on": "mouse tongue mRNA transcriptome", "experiment": "RNA-Seq analysis of the mRNA transcriptome of mouse tongues", "format": "in vivo", "conditions": "compared to the 4-NQO group", "method": "RNA-Seq analysis of the mRNA transcriptome. One part of each mouse tongue (same position on each mouse tongue) was snap frozen in liquid N2 and stored at −70° C. until total RNA extraction. Total tissue RNA was extracted and subjected to Next-Generation Sequencing (RNA-Seq) at the Genomics Resources Core Facility, Weill Cornell Medical College. Bioinfomatics analyses were performed using the Tophat and Cufflink software. (supporting information).\nRNA-Seq analysis of mRNA transcriptome. […] The GEO Accession number is GSE54246; embargoed until publication."}, "[3]": {"tested_on": "GO categories in mouse tongue", "experiment": "Gene ontology (GO) analysis of RNA-Seq data", "format": "in vivo", "conditions": "compared to the 4-NQO group", "method": "Gene ontology (GO) analysis. Gene ontology (GO) analysis (p-value cutoff: 0.00001), using the ConsensusPathDB online tool, was conducted on the Gene Ontology level 3 of the “Biological Process” domain that has predefined, functional sets for enrichment analysis with default parameter settings."}, "[4]": {"tested_on": "4-hydroxynonenal (4-HNE), marker of oxidative stress", "experiment": "Immunohistochemistry of tongue epithelium: 4-HNE", "format": "in vivo, mouse", "conditions": "compared to the 4-NQO group; antibody staining", "method": "(§1) Immunohistochemistry. Paraffin embedded tongue sections were stained with various antibodies (supporting information).\n(§2) Immunohistochemistry. Paraffin-embedded sections (from two to four mice per group) were deparaffinized and rehydrated, and antigen retrieval was performed using an antigen unmasking solution (Vector Laboratories, H-3300). After quenching endogenous peroxidase with 3% H2O2, the tissue sections were blocked with the blocking reagent (from the M.O.M. kit from Vector Laboratories for 4-HNE) or 10% goat serum (Vector Laboratories). Then, tissue sections were incubated with a 4-HNE antibody (1:700; mouse monoclonal antibody; Abcam, ab48506), a β-catenin antibody (1:400; rabbit polyclonal antibody; Abcam, ab6302), or a MMP9 antibody (1:70; rabbit polyclonal antibody; Abcam, ab38898), respectively, overnight at 4° C. The sections were then incubated with secondary antibodies (1:200, anti-mouse IgG from the M.O.M kit for 4-1-INE; ready-to-use anti-rabbit IgG from the Invitrogen SuperPicture kit for β-catenin and MMP9). As a negative control, sections were stained without incubation with primary antibodies. The signals were visualized based on a peroxidase detection mechanism with 3,3-diaminobenzidine (DAB) used as the substrate. Four to five representative areas of each mouse tongue section from two to four mice per group were photographed and analyzed."}, "β-catenin": {"tested_on": "β-catenin", "experiment": "Immunohistochemistry of tongue epithelium: β-catenin", "format": "in vivo, mouse", "conditions": "compared to the 4-NQO group; antibody staining", "method": "as §1, §2"}, "IL-6": {"tested_on": "IL-6", "experiment": "Immunohistochemistry of tongue epithelium: IL-6", "format": "in vivo, mouse", "conditions": "compared to the 4-NQO group; antibody staining", "from_the_text": "(§3) The tongues were fixed, embedded in paraffin, and sectioned. Then the tissue sections were stained with various antibodies (magnification, 200×). Four to five representative areas of each tongue section from two to four mice/group were photographed and analyzed (FIGS. 12A and 12B). Interleukin-6 (IL-6) is a multifunctional cytokine that is involved in the regulation of immune responses and cellular functions. IL-6 levels are enhanced in human oral squamous cell carcinoma and IL-6 is considered a bad prognostic factor in this cancer (Expert Opin Ther Targets. 2013 January; 17(1):53-9). IL-6 protein was detected primarily in the basal layer of tongue epithelium in the UNT samples (FIG. 12A, arrows), but in the 4-NQO treated samples we observed both an increase in the protein level and an expansion of IL-6 signal to the suprabasal layers of the tongue epithelium (FIG. 12A)."}, "MCT4": {"tested_on": "MCT4", "experiment": "Immunohistochemistry of tongue epithelium: MCT4", "format": "in vivo, mouse", "conditions": "compared to the 4-NQO group; antibody staining", "from_the_text": "as §3"}, "[5]": {"experiment": "Consumption of drug containing drinking water and diet", "format": "in vivo, mouse", "conditions": "4-NQO treated mice, 15 week post 4-NQO treatment", "from_the_text": "Drug treatments reduce tongue tumor development. All of the mice tolerated the 10 week 4-NQO treatment, and almost all of the mice survived the 15 week post 4-NQO treatment period (A). We determined that the CD1530 in the regular drinking water was stable for at least 7 days at room temperature by HPLC analysis (FIG. 7); thus, we decided to use drinking water as a delivery method because this method is effective and less laborious."}, "[6]": {"tested_on": "pathways (Reactome, KEGG, MouseCyc) in mouse tongue", "experiment": "Pathway enrichment analysis (ConsensusPathDB) of RNA-Seq data", "procedure": "RNA-Seq analysis of mRNA transcriptome. Representative tongue samples were chosen for the RNA-Seq analysis: untreated (n=5), 4-NQO treatment group (n=3), 4N+B (n=4), 4N+C (n=4), and 4N+B+C (n=5). The extraction of total cellular RNA from mouse tissues was carried out using the RNeasy kit (Qiagen). Subsequent RNA preparation steps were carried out at the Genomics Resources Core Facility of WCMC. The measurement of RNA integrity was determined using the Agilent 2100 BioAnalyzer (Agilent Technologies). Samples with RNA integrity number (RIN) values of 10 were used to construct cDNA libraries. mRNA was purified by using pre-prepared Sera-mag Magnetic Oligo(dT) Beads from Illumina Inc. (SanDiego, Calif.), subjected to thermal fragmentation, and reverse transcribed to first strand cDNA. Following the removal of mRNA strands by RNaseH, first strand cDNAs were used as templates to produce double strand cDNAs, and the overhangs resulting from fragmentation were repaired to blunt ends. An ‘A’ base was added to the 3′ end of cDNAs and subsequently the cDNAs were ligated to Illumina paired end (PE) adaptors that have a single ‘T’ base overhang at their 3′ end. The cDNA-adaptor libraries were purified and enriched by 15 cycles of PCR. The enriched libraries were hybridized to a flow cell and amplified, resulting in ultra-high density flow cells with millions of clusters, each containing about 1,000 copies of the templates. The double stranded cDNA-adaptors were denatured and converted into single strand DNA, and then the template cDNAs were amplified one more time isothermally to produce surface-bound colonies. The clonal DNA clusters were linearized, free 3′ OH ends blocked, denatured, hybridized to sequencing primers, and sequenced. The sequencing was conducted by running 4 samples per lane with 51 pair-end cycles on the HISeq2000/1000. The Sequencing-by-Synthesis process used reversible terminators and a DNA polymerase modified to accept reversible terminator nucleotides. After each synthesis cycle the fluorescence of clusters was imaged with high sensitivity. Then the sequencing images were analyzed in three steps, image analysis, base calling, and sequence analysis. The Tophat software was used to align raw sequencing reads against the UCSC mm9 mouse reference genome, and Cufflinks software was employed to measure transcript abundances in the unit of fragments per kilobase of exon model per million mapped reads (FPKM), as well as to perform statistical analysis on the changes in gene expression. The heat maps for genes of interest were generated by R package software."}, "[7]": {"tested_on": "tongue lesions (4-NQO induced oral cavity carcinogenesis)", "experiment": "4-NQO mouse oral cavity carcinogenesis model: gross tongue lesion number and severity"}, "[8]": {"conditions": "down-regulated vs. 4-NQO group, KEGG"}, "[9]": {"conditions": "down-regulated vs. 4-NQO group, Reactome"}, "[10]": {"conditions": "upregulated vs. 4-NQO group, KEGG"}},
  "data": [
    {"compound": "C=C(c1ccc(C(=O)O)cc1)c1cc2c(cc1C)C(C)(C)CCC2(C)C", "note": "[bexarotene]", "values": [
      {"measurement": "serum triglyceride levels", "setting": "[1]", "value": "did not change serum triglyceride levels significantly"},
      {"measurement": "transcript levels of DNA replication genes (MCM 2-7 and 10, DNA2, LIG1, ORC1, POLA1, PRIM2)", "setting": "[2]", "value": "significantly lower transcript levels of the majority of these genes"},
      {"measurement": "number of genes with decreased transcript levels", "setting": "[2]; p<0.05", "value": 614},
      {"measurement": "number of genes with increased transcript levels", "setting": "[2]; p<0.05", "value": 436},
      {"measurement": "number of genes with significantly different transcript levels", "setting": "[2]; p<0.05", "value": 1050},
      {"measurement": "GO categories related to cell cycle, DNA replication, and mitosis", "setting": "[3]", "value": "most under-expressed"},
      {"measurement": "4-HNE levels in tongue samples", "setting": "[4]", "value": "lower"},
      {"measurement": "β-catenin protein levels in the tongue epithelium", "setting": "β-catenin", "value": "lower β-catenin protein levels"},
      {"measurement": "IL-6 protein levels in the tongue epithelium", "setting": "IL-6", "value": "lower IL-6 protein levels"},
      {"measurement": "MCT4 protein levels in the tongue epithelium", "setting": "MCT4", "value": "lower MCT4 protein levels"},
      {"measurement": "consumption of drug containing diet vs regular diet", "setting": "[5]", "value": "comparable"},
      {"measurement": "candidates contained, pathway Cell cycle-Mus musculus (mouse)", "setting": "[6]; [8]", "value": "19 (15.0%)"},
      {"measurement": "candidates contained, pathway Complement and coagulation cascades-Mus musculus (mouse)", "setting": "[6]; [8]", "value": "21 (27.6%)"},
      {"measurement": "candidates contained, pathway Retinol metabolism-Mus musculus (mouse)", "setting": "[6]; [8]", "value": "14 (17.7%)"},
      {"measurement": "candidates contained, pathway Activation of ATR in response to replication stress", "setting": "[6]; [9]", "value": "10 (26.3%)"},
      {"measurement": "candidates contained, pathway Activation of the pre-replicative complex", "setting": "[6]; [9]", "value": "9 (31.0%)"},
      {"measurement": "candidates contained, pathway Cell Cycle", "setting": "[6]; [9]", "value": "46 (15.1%)"},
      {"measurement": "candidates contained, pathway Cell Cycle Checkpoints", "setting": "[6]; [9]", "value": "16 (20.8%)"},
      {"measurement": "candidates contained, pathway Cell Cycle, Mitotic", "setting": "[6]; [9]", "value": "44 (16.4%)"},
      {"measurement": "candidates contained, pathway Common Pathway", "setting": "[6]; [9]", "value": "6 (46.2%)"},
      {"measurement": "candidates contained, pathway DNA Replication", "setting": "[6]; [9]", "value": "34 (21.7%)"},
      {"measurement": "candidates contained, pathway DNA Replication Pre-Initiation", "setting": "[6]; [9]", "value": "10 (27.8%)"},
      {"measurement": "candidates contained, pathway Formation of Fibrin Clot (Clotting Cascade)", "setting": "[6]; [9]", "value": "10 (29.4%)"},
      {"measurement": "candidates contained, pathway G1/S Transition", "setting": "[6]; [9]", "value": "12 (19.4%)"},
      {"measurement": "candidates contained, pathway G2/M Checkpoints", "setting": "[6]; [9]", "value": "13 (28.9%)"},
      {"measurement": "candidates contained, pathway HDL-mediated lipid transport", "setting": "[6]; [9]", "value": "7 (41.2%)"},
      {"measurement": "candidates contained, pathway Hemostasis", "setting": "[6]; [9]", "value": "37 (12.3%)"},
      {"measurement": "candidates contained, pathway Lipid digestion, mobilization, and transport", "setting": "[6]; [9]", "value": "11 (22.4%)"},
      {"measurement": "candidates contained, pathway Lipoprotein metabolism", "setting": "[6]; [9]", "value": "11 (35.5%)"},
      {"measurement": "candidates contained, pathway M Phase", "setting": "[6]; [9]", "value": "22 (22.2%)"},
      {"measurement": "candidates contained, pathway M/G1 Transition", "setting": "[6]; [9]", "value": "10 (27.8%)"},
      {"measurement": "candidates contained, pathway Metabolism of amino acids and derivatives", "setting": "[6]; [9]", "value": "21 (16.9%)"},
      {"measurement": "candidates contained, pathway Mitotic G1-G1/S phases", "setting": "[6]; [9]", "value": "14 (19.2%)"},
      {"measurement": "candidates contained, pathway Mitotic M-M/G1 phases", "setting": "[6]; [9]", "value": "32 (23.7%)"},
      {"measurement": "candidates contained, pathway Mitotic Prometaphase", "setting": "[6]; [9]", "value": "21 (22.1%)"},
      {"measurement": "candidates contained, pathway Phenylalanine and tyrosine catabolism", "setting": "[6]; [9]", "value": "5 (62.5%)"},
      {"measurement": "candidates contained, pathway Platelet degranulation", "setting": "[6]; [9]", "value": "15 (23.4%)"},
      {"measurement": "candidates contained, pathway Response to elevated platelet cytosolic Ca2+", "setting": "[6]; [9]", "value": "15 (21.4%)"},
      {"measurement": "candidates contained, pathway Calcium signaling pathway-Mus musculus (mouse)", "setting": "[6]; [10]", "value": "15 (8.4%)"},
      {"measurement": "candidates contained, pathway Gastric acid secretion-Mus musculus (mouse)", "setting": "[6]; [10]", "value": "10 (13.7%)"},
      {"measurement": "number of tongue lesions (gross tongue lesion multiplicity)", "setting": "[7]; C57BL/6 female mice, 4-NQO 10 weeks, then drug in 15 week post 4-NQO period, bexarotene 300 mg/kg diet, CD1530 […]100 ml drinking water, 4-NQO group 5.9±3.2", "value": "5.3±1.4"},
      {"measurement": "average severity of tongue lesions (grade 0-4)", "setting": "[7]; same model, 4-NQO group 2.8±0.8", "value": "1.9±1.2"},
      {"measurement": "lesions at grade 1", "setting": "[7]; same model, 4-NQO group all lesions at or greater than grade 2", "value": 50, "unit": "%"}
    ]}
  ]
}
